Reference: paper PMC2193020 (The Journal of Experimental Medicine, 1999)
Ends that are not written are not given here.

Experiments:
I-A^s = biological target: T1, I-A^s (Mus musculus, UniProt P06345+P14437); test: Class II peptide binding assay on purified I-A^s molecules
T1 sequence (P14437 1-233): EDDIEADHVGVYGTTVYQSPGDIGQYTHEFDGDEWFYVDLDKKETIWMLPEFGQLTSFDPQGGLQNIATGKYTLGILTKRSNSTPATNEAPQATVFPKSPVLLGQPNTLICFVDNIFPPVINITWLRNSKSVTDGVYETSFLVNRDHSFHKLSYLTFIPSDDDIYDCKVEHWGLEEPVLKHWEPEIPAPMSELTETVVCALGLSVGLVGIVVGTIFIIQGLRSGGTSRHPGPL
T1 sequence (P06345 28-263): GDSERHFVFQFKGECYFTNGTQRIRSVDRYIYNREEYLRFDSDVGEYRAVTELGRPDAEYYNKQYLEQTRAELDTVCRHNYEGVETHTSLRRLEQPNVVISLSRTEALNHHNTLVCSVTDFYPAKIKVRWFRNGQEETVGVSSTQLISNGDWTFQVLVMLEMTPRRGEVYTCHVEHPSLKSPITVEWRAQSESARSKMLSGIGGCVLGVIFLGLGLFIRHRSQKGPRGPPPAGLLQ

[1] = test system: MBP autoantibodies affinity-purified from CNS lesions; conditions: autoantibodies from CNS lesions of 12 postmortem MS cases; ref [19], [21]; cited from earlier work

Row | Molecule | IC50 (I-A^s) [nM] | Inhibition of autoantibody binding to MBP [1] [%]
1 | CC(C)C[C@H](NC(=O)[C@H](CCCNC(=N)N)NC(=O)[C@H](CCCNC(=N)N)NC(=O)CNC(=O)CN)C(=O)N[C@@H](Cc1ccccc1)C(=O)N[C@@H](Cc1ccccc1)C(=O)N[C@H](C(=O)N[C@@H](CCCCN)C(=O)N[C@@H](C)C(=O)N[C@@H](Cc1c[nH]cn1)C(=O)N[C@H](C(=O)N[C@@H](CCCNC(=N)N)C(=O)N[C@@H](CCC(=O)O)C(=O)O)C(C)C)C(C)C [Herpes simplex DNA pol] | 551 | 
2 | CC[C@H](C)[C@H](NC(=O)[C@H](CC(N)=O)NC(=O)[C@H](CCCCN)NC(=O)[C@H](Cc1ccccc1)NC(=O)[C@H](Cc1ccccc1)NC(=O)[C@H](Cc1c[nH]cn1)NC(=O)[C@@H](NC(=O)[C@@H](NC(=O)[C@@H]1CCCN1C(=O)[C@H](CC(N)=O)NC(=O)[C@@H](N)CCC(=O)O)C(C)C)C(C)C)C(=O)N[C@H](C(=O)N[C@H](C(=O)N1CCC[C@H]1C(=O)N[C@@H](CCCNC(=N)N)C(=O)O)[C@@H](C)O)C(C)C [MBPp85–99, reference compound] | 667 | 
3 | IGGRVHFFKDISPIA [HPV 7] | 208 | 
4 | IGGRVHFFRDISPIG [HPV 40] | 180 | 
5 | VHFFKNIVTPRTP [MBPp87–99] |  | > 95
